Experimental data from patent US20260022142A1, “MACROCYCLIC IMMUNOMODULATORS” (Bristol-Myers Squibb Company, priority 2022, published 2026).
pIC50: −log10 of the molar value. Bridge positions count the residues as written; N and C are the ends. Square brackets hold non-standard residues; d marks the D form. Peptide text beside a SMILES is read from it. * marks the point of attachment. ξ: configuration not given here. Bip = N[C@@H](Cc1ccc(-c2ccccc2)cc1)C(=O)O; Phe(3-Me) = Cc1cccc(C[C@H](N)C(=O)O)c1; hArg = N=C(N)NCCCC[C@H](N)C(=O)O; Cha = N[C@@H](CC1CCCCC1)C(=O)O; aThr = C[C@H](O)[C@H](N)C(=O)O; Thr(3ξ) = CC(O)[C@H](N)C(=O)O; 12Ado = NCCCCCCCCCCCC(=O)O; Carboxymethyl = O=C(O)C*; Orn = NCCC[C@H](N)C(=O)O; Aun = NCCCCCCCCCCC(=O)O; Dab = NCC[C@H](N)C(=O)O; Dap = NC[C@H](N)C(=O)O; AEEA = NCCOCCOCC(=O)O

Target: T1, PD-1/PD-L1 interaction (PE-labeled human PD-L1-Ig binding to Jurkat cell line over-expressing human PD-1) (Homo sapiens, UniProt Q15116)
T1 construct: expressed in transfected cells; host or cells: Jurkat
Assay: Jurkat-PD-1 Cell Binding High-Content Screening Assay (CBA)
Format: cell-based
Conditions: Jurkat cell line over-expressing human PD-1; PE-labeled PD-L1-Ig 20 nM final; read-out: Jurkat hPD1-PDL1 IC50
Outline: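 Jurkat-hPD-1 cells, DMEM/10% FCS; cpd 2 h 37° C; PE-PD-L1-Ig 20 nM final, 1 h; 4% PFA fix + Hoechst 33342, 3× dPBS wash; high-content imaging read-out.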

T1 sequence (Q15116 25-288): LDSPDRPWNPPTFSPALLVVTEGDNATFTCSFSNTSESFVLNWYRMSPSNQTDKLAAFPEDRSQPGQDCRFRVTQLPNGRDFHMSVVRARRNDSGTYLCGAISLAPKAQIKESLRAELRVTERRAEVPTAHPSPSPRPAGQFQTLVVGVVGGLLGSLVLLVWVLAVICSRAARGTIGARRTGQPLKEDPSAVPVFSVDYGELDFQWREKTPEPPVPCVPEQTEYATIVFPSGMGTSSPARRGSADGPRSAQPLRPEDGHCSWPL

Row | Compound | pIC50
1 | CC(C)C[C@H]1NC(=O)[C@H](CCCN)NC(=O)[C@H](C(C)C)NC(=O)[C@H](Cc2ccc(-c3ccccc3)cc2)NC(=O)[C@H](C(C)C)NC(=O)[C@H](Cc2c[nH]c3ccccc23)NC(=O)[C@H](CC(=O)O)NC(=O)[C@H](Cc2ccc(OCC(=O)O)cc2)NC(=O)[C@H](CN)NC(=O)CSC[C@@H](C(=O)N[C@@H](CCCN)C(=O)NCCCCCCCCCCC(=O)O)NC(=O)[C@H](C(C)O)NC(=O)[C@H](C(C)C)NC(=O)[C@H](CC2CCCCC2)NC(=O)[C@H](CC(N)=O)NC1=O (stereo partly drawn) [Compound 3149] ({CH2CO}-[Dap]Y(Carboxymethyl)DWV[Bip]V[Orn][dL]N[Cha]V[Thr(3ξ)]C[Orn][Aun]-OH; thioether N-14) | 7.33
2 | CC(C)C[C@H]1NC(=O)[C@H](CCCN)NC(=O)[C@H](C(C)C)NC(=O)[C@H](Cc2ccc(-c3ccccc3)cc2)NC(=O)[C@H](C(C)C)NC(=O)[C@H](Cc2c[nH]c3ccccc23)NC(=O)[C@H](CC(=O)O)NC(=O)[C@H](Cc2ccc(OCC(=O)O)cc2)NC(=O)[C@H](CN)NC(=O)CSC[C@@H](C(=O)N[C@@H](CCCCN)C(=O)NCCCCCCCCCCCC(=O)O)NC(=O)[C@H](C(C)O)NC(=O)[C@H](C(C)C)NC(=O)[C@H](CC2CCCCC2)NC(=O)[C@H](CCCNC(=N)N)NC1=O (stereo partly drawn) [Compound 3150] ({CH2CO}-[Dap]Y(Carboxymethyl)DWV[Bip]V[Orn][dL]R[Cha]V[Thr(3ξ)]CK[12Ado]-OH; thioether N-14) | 7.23
3 | CC(C)C[C@H]1NC(=O)[C@H](CCCN)NC(=O)[C@H](C(C)C)NC(=O)[C@H](Cc2ccc(-c3ccccc3)cc2)NC(=O)[C@H](C(C)C)NC(=O)[C@H](Cc2c[nH]c3ccccc23)NC(=O)[C@H](CC(=O)O)NC(=O)[C@H](Cc2ccc(OCC(=O)O)cc2)NC(=O)[C@H](CCCCNC(=N)N)NC(=O)CSC[C@@H](C(=O)N[C@@H](CCN)C(=O)NCCCCCCCCCCC(=O)O)NC(=O)[C@H](C(C)O)NC(=O)[C@H](C(C)C)NC(=O)[C@H](CC2CCCCC2)NC(=O)[C@H](Cc2cnc[nH]2)NC1=O (stereo partly drawn) [Compound 3151] ({CH2CO}-[hArg]Y(Carboxymethyl)DWV[Bip]V[Orn][dL]H[Cha]V[Thr(3ξ)]C[Dab][Aun]-OH; thioether N-14) | 7.47
4 | CC(C)C[C@H]1NC(=O)[C@H](CCCN)NC(=O)[C@H](C(C)C)NC(=O)[C@H](Cc2ccc(-c3ccccc3)cc2)NC(=O)[C@H](C(C)C)NC(=O)[C@H](Cc2c[nH]c3ccccc23)NC(=O)[C@H](CC(=O)O)NC(=O)[C@H](Cc2ccc(OCC(=O)O)cc2)NC(=O)[C@H](CCCCNC(=N)N)NC(=O)CSC[C@@H](C(=O)N[C@@H](CN)C(=O)NCCCCCCCCCCC(=O)O)NC(=O)[C@H](C(C)O)NC(=O)[C@H](C(C)C)NC(=O)[C@H](CC2CCCCC2)NC(=O)[C@H](Cc2cnc[nH]2)NC1=O (stereo partly drawn) [Compound 3152] ({CH2CO}-[hArg]Y(Carboxymethyl)DWV[Bip]V[Orn][dL]H[Cha]V[Thr(3ξ)]C[Dap][Aun]-OH; thioether N-14) | 7.33
5 | CC(C)C[C@H]1NC(=O)[C@H](CCCN)NC(=O)[C@H](C(C)C)NC(=O)[C@H](Cc2ccc(-c3ccccc3)cc2)NC(=O)[C@H](C(C)C)NC(=O)[C@H](Cc2c[nH]c3ccccc23)NC(=O)[C@H](CC(=O)O)NC(=O)[C@H](Cc2ccc(OCC(=O)O)cc2)NC(=O)[C@H](CCCCNC(=N)N)NC(=O)CSC[C@@H](C(=O)NCCOCCOCC(=O)N[C@@H](CCCN)C(=O)NCCCCCCCCCCCC(=O)O)NC(=O)[C@H](CO)NC(=O)[C@H](C(C)C)NC(=O)[C@H](CC2CCCCC2)NC(=O)[C@H](CCN)NC1=O [Compound 3153] ({CH2CO}-[hArg]Y(Carboxymethyl)DWV[Bip]V[Orn][dL][Dab][Cha]VSC[AEEA][Orn][12Ado]-OH; thioether N-14) | 7.92
6 | CC(C)C[C@H]1NC(=O)[C@H](CCCN)NC(=O)[C@H](C(C)C)NC(=O)[C@H](Cc2ccc(-c3ccccc3)cc2)NC(=O)[C@H](C(C)C)NC(=O)[C@H](Cc2c[nH]c3ccccc23)NC(=O)[C@H](CC(=O)O)NC(=O)[C@H](Cc2ccc(OCC(=O)O)cc2)NC(=O)[C@H](CCCCNC(=N)N)NC(=O)CSC[C@@H](C(=O)NCCOCCOCC(=O)N[C@@H](CCCCN)C(=O)NCCCCCCCCCCCC(=O)O)NC(=O)[C@H](CO)NC(=O)[C@H](C(C)C)NC(=O)[C@H](CC2CCCCC2)NC(=O)[C@H](CCN)NC1=O [Compound 3154] ({CH2CO}-[hArg]Y(Carboxymethyl)DWV[Bip]V[Orn][dL][Dab][Cha]VSC[AEEA]K[12Ado]-OH; thioether N-14) | 7.83
7 | CC(C)C[C@H]1NC(=O)[C@H](CCCN)NC(=O)[C@H](C(C)C)NC(=O)[C@H](Cc2ccc(-c3ccccc3)cc2)NC(=O)[C@H](C(C)C)NC(=O)[C@H](Cc2c[nH]c3ccccc23)NC(=O)[C@H](CC(=O)O)NC(=O)[C@H](Cc2ccc(OCC(=O)O)cc2)NC(=O)[C@H](CCCCNC(=N)N)NC(=O)CSC[C@@H](C(=O)N[C@@H](CCCCN)C(=O)NCCCCCCCCCCCC(=O)O)NC(=O)[C@H](CO)NC(=O)[C@H](C(C)C)NC(=O)[C@H](CC2CCCCC2)NC(=O)[C@H](Cc2cnc[nH]2)NC1=O [Compound 3155] ({CH2CO}-[hArg]Y(Carboxymethyl)DWV[Bip]V[Orn][dL]H[Cha]VSCK[12Ado]-OH; thioether N-14) | 7.35
8 | CC(C)C[C@H]1NC(=O)[C@H](CCCN)NC(=O)[C@H](C(C)C)NC(=O)[C@H](Cc2ccc(-c3ccccc3)cc2)NC(=O)[C@H](C(C)C)NC(=O)[C@H](Cc2c[nH]c3ccccc23)NC(=O)[C@H](CC(=O)O)NC(=O)[C@H](Cc2ccc(OCC(=O)O)cc2)NC(=O)[C@H](CCCCNC(=N)N)NC(=O)CSC[C@@H](C(=O)N[C@@H](CCCN)C(=O)NCCCCCCCCCCCC(=O)O)NC(=O)[C@H](CO)NC(=O)[C@H](C(C)C)NC(=O)[C@H](CC2CCCCC2)NC(=O)[C@H](CC(N)=O)NC1=O [Compound 3156] ({CH2CO}-[hArg]Y(Carboxymethyl)DWV[Bip]V[Orn][dL]N[Cha]VSC[Orn][12Ado]-OH; thioether N-14) | 7.46
9 | CC(C)C[C@H]1NC(=O)[C@H](CCCN)NC(=O)[C@H](C(C)C)NC(=O)[C@H](Cc2ccc(-c3ccccc3)cc2)NC(=O)[C@H](C(C)C)NC(=O)[C@H](Cc2c[nH]c3ccccc23)NC(=O)[C@H](CC(=O)O)NC(=O)[C@H](CCCCNC(=N)N)NC(=O)[C@H](Cc2ccc(OCC(=O)O)cc2)NC(=O)CSC[C@@H](C(=O)NCCOCCOCC(=O)N[C@@H](CCCCN)C(=O)NCCCCCCCCCCCC(=O)O)NC(=O)[C@H](CCN)NC(=O)[C@H](C(C)C)NC(=O)[C@H](CC2CCCCC2)NC(=O)[C@H](Cc2cnc[nH]2)NC1=O [Compound 3158] ({CH2CO}-Y(Carboxymethyl)[hArg]DWV[Bip]V[Orn][dL]H[Cha]V[Dab]C[AEEA]K[12Ado]-OH; thioether N-14) | 6.97
10 | CC(C)C[C@H]1NC(=O)[C@H](CCCN)NC(=O)[C@H](C(C)C)NC(=O)[C@H](Cc2ccc(-c3ccccc3)cc2)NC(=O)[C@H](C(C)C)NC(=O)[C@H](Cc2c[nH]c3ccccc23)NC(=O)[C@H](CC(=O)O)NC(=O)[C@H](Cc2ccc(OCC(=O)O)cc2)NC(=O)[C@H](CCCCNC(=N)N)NC(=O)CSC[C@@H](C(=O)N[C@@H](CCCN)C(=O)NCCCCCCCCCCC(=O)O)NC(=O)[C@H](C(C)O)NC(=O)[C@H](C(C)C)NC(=O)[C@H](CC2CCCCC2)NC(=O)[C@H](Cc2cnc[nH]2)NC1=O (stereo partly drawn) [Compound 3159] ({CH2CO}-[hArg]Y(Carboxymethyl)DWV[Bip]V[Orn][dL]H[Cha]V[Thr(3ξ)]C[Orn][Aun]-OH; thioether N-14) | 7.37
11 | Cc1cccc(C[C@@H]2NC(=O)[C@H](CC(=O)O)NC(=O)[C@H](Cc3ccc(OCC(=O)O)cc3)NC(=O)[C@H](CN)NC(=O)CSC[C@@H](C(=O)N[C@@H](CCCCN)C(=O)NCCCCCCCCCCC(=O)O)NC(=O)[C@H](C(C)O)NC(=O)[C@H](C(C)C)NC(=O)[C@H](CC3CCCCC3)NC(=O)[C@H](Cc3cnc[nH]3)NC(=O)[C@@H](CC(C)C)NC(=O)[C@H](CCCN)NC(=O)[C@H](CCC(=O)O)NC(=O)[C@H](Cc3ccc(-c4ccccc4)cc3)NC(=O)[C@H](C(C)C)NC2=O)c1 (stereo partly drawn) [Compound 3160] ({CH2CO}-[Dap]Y(Carboxymethyl)D[Phe(3-Me)]V[Bip]E[Orn][dL]H[Cha]V[Thr(3ξ)]CK[Aun]-OH; thioether N-14) | 7.43
12 | Cc1cccc(C[C@@H]2NC(=O)[C@H](CC(=O)O)NC(=O)[C@H](Cc3ccc(OCC(=O)O)cc3)NC(=O)[C@H](CCCCNC(=N)N)NC(=O)CSC[C@@H](C(=O)N[C@@H](CCCCN)C(=O)NCCCCCCCCCCC(=O)O)NC(=O)[C@H](C(C)O)NC(=O)[C@H](C(C)C)NC(=O)[C@H](CC3CCCCC3)NC(=O)[C@H](Cc3cnc[nH]3)NC(=O)[C@@H](CC(C)C)NC(=O)[C@H](CCCN)NC(=O)[C@H](CCC(=O)O)NC(=O)[C@H](Cc3ccc(-c4ccccc4)cc3)NC(=O)[C@H](C(C)C)NC2=O)c1 (stereo partly drawn) [Compound 3161] ({CH2CO}-[hArg]Y(Carboxymethyl)D[Phe(3-Me)]V[Bip]E[Orn][dL]H[Cha]V[Thr(3ξ)]CK[Aun]-OH; thioether N-14) | 7.41
13 | Cc1cccc(C[C@@H]2NC(=O)[C@H](CC(=O)O)NC(=O)[C@H](Cc3ccc(OCC(=O)O)cc3)NC(=O)[C@H](CCCCNC(=N)N)NC(=O)CSC[C@@H](C(=O)NCCOCCOCC(=O)N[C@@H](CCCCN)C(=O)NCCCCCCCCCCC(=O)O)NC(=O)[C@H]([C@H](C)O)NC(=O)[C@H](C(C)C)NC(=O)[C@H](CC3CCCCC3)NC(=O)[C@H](CC(N)=O)NC(=O)[C@@H](CC(C)C)NC(=O)[C@H](CCCN)NC(=O)[C@H](C(C)C)NC(=O)[C@H](Cc3ccc(-c4ccccc4)cc3)NC(=O)[C@H](C(C)C)NC2=O)c1 [Compound 3162] ({CH2CO}-[hArg]Y(Carboxymethyl)D[Phe(3-Me)]V[Bip]V[Orn][dL]N[Cha]V[aThr]C[AEEA]K[Aun]-OH; thioether N-14) | 7.58
